Where a name gives a salt, the structure may show the parent alone.
Test system: patients with schizophrenia in the acute exacerbation phase
Assay: First stage phase II clinical trial: safety (adverse events, serious adverse events, side effects, ECG, laboratory tests)
Format: in vivo, human
Description: According to the procedures as shown in Table 1 as described below, the placebo-controlled double blind experiment was done on 149 patients with schizophrenia in the acute exacerbation phase at 15 facilities in USA. The efficacy and safeness were studied when SM-13496 at a dose of 40 mg or 120 mg, or a placebo was orally administered once a day for 6 weeks after placebo washout.

[1] = 40 mg orally once a day for 6 weeks, 50 subjects

In the case of `O=C1[C@@H]2[C@@H]3CC[C@@H](C3)[C@@H]2C(=O)N1C[C@@H]1CCCC[C@H]1CN1CCN(c2nsc3ccccc23)CC1` [SM-13496, (1R,2S,3R,4S)-N-[(1R,2R)-2-[4-(1,2-benzoisothiazol-3-yl)-1-piperazinyl-methyl]-1-cyclohexylmethyl]-2,3-bicyclo[2.2.1]heptanedicarboximide hydrochloride], the “Relationship of the serious adverse events to the tested medicament” value (40 mg and 120 mg groups) is reported as “denied”, the “Body weight gain, bulimia, impotence, erectile dysfunction or convulsion” value (40 mg or 120 mg, 6 weeks) is reported as “not observed” and the “Change in 12-lead electrocardiogram” value (40 mg or 120 mg, 6 weeks) is reported as “no clinically significant change”. For the same compound, the “Number of subjects showing adverse events (%)” value [1] was 40 (80) number of subjects (%), the “Number of subjects showing serious adverse events (%)” value [1] was 3 (6) number of subjects (%) and the “Number of subjects who drop out from the trial due to adverse events (%)” value [1] was 6 (12) number of subjects (%). For the same compound, the “Ratio of the patients having an abnormal change in laboratory values among the groups” value (40 mg, 120 mg and placebo groups) was “no significant difference”, the “Occurrence of adverse event: Akathisia” value (40 mg, 6 weeks, 50 subjects) was 4 (8) number of subjects (%) and the “Occurrence of adverse event: Digestive disturbance” value (40 mg, 6 weeks, 50 subjects) was 4 (8) number of subjects (%). For the same compound, the “Occurrence of adverse event: Drowsiness” value (40 mg, 6 weeks, 50 subjects) was 4 (8) number of subjects (%), the “Occurrence of adverse event: Exacerbation of schizophrenia” value (40 mg, 6 weeks, 50 subjects) was 2 (4) number of subjects (%) and the “Occurrence of adverse event: Free-floating vertigo (excluding rotatory vertigo)” value (40 mg, 6 weeks, 50 subjects) was 6 (12) number of subjects (%). For the same compound, the “Occurrence of adverse event: Headache” value (40 mg, 6 weeks, 50 subjects) was 8 (16) number of subjects (%), the “Occurrence of adverse event: Nausea” value (40 mg, 6 weeks, 50 subjects) was 5 (10) number of subjects (%) and the “Occurrence of adverse event: Suppression” value (40 mg, 6 weeks, 50 subjects) was 9 (18) number of subjects (%). The “Occurrence of serious adverse event: Exacerbation of paranoia” value (40 mg, 6 weeks, 50 subjects) was 1 (2) number of subjects (%), the “Occurrence of serious adverse event: Exacerbation of schizophrenia” value (40 mg, 6 weeks, 50 subjects) was 1 (2) number of subjects (%) and the “Occurrence of serious adverse event: Paranoid schizophrenia” value (40 mg, 6 weeks, 50 subjects) was 0 (0) number of subjects (%). The “Occurrence of serious adverse event: Psychosis aggravated” value (40 mg, 6 weeks, 50 subjects) was 1 (2) number of subjects (%), the “Occurrence of side effects (%)” value (40 mg, 6 weeks, 50 subjects) was 33 (66) number of subjects (%) and the “Serious adverse events: Total (%)” value (40 mg, 6 weeks, 50 subjects) was 3 (6) number of subjects (%). For the same compound, the “Side effect: Abdominal pain (Gastroenteric disturbance)” value (40 mg, 6 weeks, 50 subjects) was 0 (0) number of subjects (%), the “Side effect: Abnormal electrocardiogram (Laboratory assay)” value (40 mg, 6 weeks, 50 subjects) was 0 (0) number of subjects (%) and the “Side effect: Abnormal liver function tests (Laboratory assay)” value (40 mg, 6 weeks, 50 subjects) was 0 (0) number of subjects (%). For the same compound, the “Side effect: Agitation (Mental disturbance)” value (40 mg, 6 weeks, 50 subjects) was 0 (0) number of subjects (%), the “Side effect: Agitation aggravated (Mental disturbance)” value (40 mg, 6 weeks, 50 subjects) was 0 (0) number of subjects (%) and the “Side effect: Akathisia (Nervous system disorder)” value (40 mg, 6 weeks, 50 subjects) was 4 (8) number of subjects (%). The “Side effect: Akathisia aggravated (Nervous system disorder)” value (40 mg, 6 weeks, 50 subjects) was 1 (2) number of subjects (%), the “Side effect: Anarthria (Nervous system disorder)” value (40 mg, 6 weeks, 50 subjects) was 0 (0) number of subjects (%) and the “Side effect: Anorexia (Metabolic disturbances and nutritional disturbance)” value (40 mg, 6 weeks, 50 subjects) was 1 (2) number of subjects (%). The “Side effect: Anxiety aggravated (Mental disturbance)” value (40 mg, 6 weeks, 50 subjects) was 1 (2) number of subjects (%), the “Side effect: Articular rigidity (Musculoskeletal system and connective tissue disorder)” value (40 mg, 6 weeks, 50 subjects) was 1 (2) number of subjects (%) and the “Side effect: Blurred vision (Ocular disturbance)” value (40 mg, 6 weeks, 50 subjects) was 1 (2) number of subjects (%). The “Side effect: Breathing difficulty (Disturbance in respiratory organ, chest and mediastinum)” value (40 mg, 6 weeks, 50 subjects) was 0 (0) number of subjects (%), the “Side effect: Cervical rigidity (Musculoskeletal system and connective tissue disorder)” value (40 mg, 6 weeks, 50 subjects) was 1 (2) number of subjects (%) and the “Side effect: Cogwheel rigidity (Nervous system disorder)” value (40 mg, 6 weeks, 50 subjects) was 0 (0) number of subjects (%). For the same compound, the “Side effect: Constipation (Gastroenteric disturbance)” value (40 mg, 6 weeks, 50 subjects) was 2 (4) number of subjects (%), the “Side effect: Decrease in appetite (Metabolic disturbances and nutritional disturbance)” value (40 mg, 6 weeks, 50 subjects) was 1 (2) number of subjects (%) and the “Side effect: Diarrhea (Gastroenteric disturbance)” value (40 mg, 6 weeks, 50 subjects) was 3 (6) number of subjects (%). For the same compound, the “Side effect: Drowsiness (Nervous system disorder)” value (40 mg, 6 weeks, 50 subjects) was 4 (8) number of subjects (%), the “Side effect: Dry eye (Ocular disturbance)” value (40 mg, 6 weeks, 50 subjects) was 0 (0) number of subjects (%) and the “Side effect: Dry mouth (Gastroenteric disturbance)” value (40 mg, 6 weeks, 50 subjects) was 0 (0) number of subjects (%). The “Side effect: Dyspepsia (Gastroenteric disturbance)” value (40 mg, 6 weeks, 50 subjects) was 3 (6) number of subjects (%), the “Side effect: Dystonic reaction (Nervous system disorder)” value (40 mg, 6 weeks, 50 subjects) was 1 (2) number of subjects (%) and the “Side effect: Exacerbation of insomnia (Mental disturbance)” value (40 mg, 6 weeks, 50 subjects) was 0 (0) number of subjects (%). The “Side effect: External otitis (Infection and parasitosis)” value (40 mg, 6 weeks, 50 subjects) was 1 (2) number of subjects (%), the “Side effect: Extrapyramidal disease (Nervous system disorder)” value (40 mg, 6 weeks, 50 subjects) was 1 (2) number of subjects (%) and the “Side effect: Fatigue (Total disability and local condition)” value (40 mg, 6 weeks, 50 subjects) was 3 (6) number of subjects (%). For the same compound, the “Side effect: Fatigue aggravated (Total disability and local condition)” value (40 mg, 6 weeks, 50 subjects) was 1 (2) number of subjects (%), the “Side effect: Flatulence (Gastroenteric disturbance)” value (40 mg, 6 weeks, 50 subjects) was 1 (2) number of subjects (%) and the “Side effect: Flushing (Vascular diseases)” value (40 mg, 6 weeks, 50 subjects) was 0 (0) number of subjects (%). For the same compound, the “Side effect: Free-floating vertigo (excluding rotatory vertigo) (Nervous system disorder)” value (40 mg, 6 weeks, 50 subjects) was 5 (10) number of subjects (%), the “Side effect: Frequent urination (Renal Injury and urinary disorder)” value (40 mg, 6 weeks, 50 subjects) was 0 (0) number of subjects (%) and the “Side effect: Glossoplegia (Nervous system disorder)” value (40 mg, 6 weeks, 50 subjects) was 0 (0) number of subjects (%). The “Side effect: Headache (Nervous system disorder)” value (40 mg, 6 weeks, 50 subjects) was 6 (12) number of subjects (%), the “Side effect: Heavy feeling (Musculoskeletal system and connective tissue disorder)” value (40 mg, 6 weeks, 50 subjects) was 1 (2) number of subjects (%) and the “Side effect: Hot flashes (Vascular diseases)” value (40 mg, 6 weeks, 50 subjects) was 0 (0) number of subjects (%). The “Side effect: Hot sensation (Total disability and local condition)” value (40 mg, 6 weeks, 50 subjects) was 0 (0) number of subjects (%), the “Side effect: Increase in creatine phosphokinase level in the blood (Laboratory assay)” value (40 mg, 6 weeks, 50 subjects) was 1 (2) number of subjects (%) and the “Side effect: Increase in prolactin level in the blood (Laboratory assay)” value (40 mg, 6 weeks, 50 subjects) was 1 (2) number of subjects (%). For the same compound, the “Side effect: Increase in total protein (Laboratory assay)” value (40 mg, 6 weeks, 50 subjects) was 1 (2) number of subjects (%), the “Side effect: Insomnia (Mental disturbance)” value (40 mg, 6 weeks, 50 subjects) was 1 (2) number of subjects (%) and the “Side effect: Laryngopharynx pain (Disturbance in respiratory organ, chest and mediastinum)” value (40 mg, 6 weeks, 50 subjects) was 1 (2) number of subjects (%). For the same compound, the “Side effect: Loose stools (Gastroenteric disturbance)” value (40 mg, 6 weeks, 50 subjects) was 0 (0) number of subjects (%), the “Side effect: Melalgia (Musculoskeletal system and connective tissue disorder)” value (40 mg, 6 weeks, 50 subjects) was 0 (0) number of subjects (%) and the “Side effect: Muscle stiffness (Musculoskeletal system and connective tissue disorder)” value (40 mg, 6 weeks, 50 subjects) was 2 (4) number of subjects (%). For the same compound, the “Side effect: Myalgic pain (Musculoskeletal system and connective tissue disorder)” value (40 mg, 6 weeks, 50 subjects) was 0 (0) number of subjects (%), the “Side effect: Nausea (Gastroenteric disturbance)” value (40 mg, 6 weeks, 50 subjects) was 4 (8) number of subjects (%) and the “Side effect: Nightmare (Mental disturbance)” value (40 mg, 6 weeks, 50 subjects) was 0 (0) number of subjects (%). For the same compound, the “Side effect: Palpitation (Heart problems)” value (40 mg, 6 weeks, 50 subjects) was 0 (0) number of subjects (%), the “Side effect: Parotiditis (Infection and parasitosis)” value (40 mg, 6 weeks, 50 subjects) was 0 (0) number of subjects (%) and the “Side effect: Polyuria (Renal Injury and urinary disorder)” value (40 mg, 6 weeks, 50 subjects) was 0 (0) number of subjects (%). The “Side effect: Pruritus (Disturbance in Skin and Hypodermis)” value (40 mg, 6 weeks, 50 subjects) was 0 (0) number of subjects (%), the “Side effect: Psychosis aggravated (Mental disturbance)” value (40 mg, 6 weeks, 50 subjects) was 0 (0) number of subjects (%) and the “Side effect: Restlessness (Mental disturbance)” value (40 mg, 6 weeks, 50 subjects) was 1 (2) number of subjects (%). For the same compound, the “Side effect: Salivary hypersecretion (Gastroenteric disturbance)” value (40 mg, 6 weeks, 50 subjects) was 0 (0) number of subjects (%), the “Side effect: Sinus tachycardia (Heart problems)” value (40 mg, 6 weeks, 50 subjects) was 0 (0) number of subjects (%) and the “Side effect: Sleepiness (Total disability and local condition)” value (40 mg, 6 weeks, 50 subjects) was 1 (2) number of subjects (%). For the same compound, the “Side effect: Suppression (Nervous system disorder)” value (40 mg, 6 weeks, 50 subjects) was 9 (18) number of subjects (%), the “Side effect: Tinea pedis (Infection and parasitosis)” value (40 mg, 6 weeks, 50 subjects) was 0 (0) number of subjects (%) and the “Side effect: Tongue disturbance (Gastroenteric disturbance)” value (40 mg, 6 weeks, 50 subjects) was 1 (2) number of subjects (%). The “Side effect: Tremor (Nervous system disorder)” value (40 mg, 6 weeks, 50 subjects) was 3 (6) number of subjects (%), the “Side effect: Trismus (Nervous system disorder)” value (40 mg, 6 weeks, 50 subjects) was 0 (0) number of subjects (%) and the “Side effect: Urinary tract infection (Infection and parasitosis)” value (40 mg, 6 weeks, 50 subjects) was 1 (2) number of subjects (%). The “Side effect: Vomiting (Gastroenteric disturbance)” value (40 mg, 6 weeks, 50 subjects) was 2 (4) number of subjects (%), the “Side effect: Weight loss (Laboratory assay)” value (40 mg, 6 weeks, 50 subjects) was 1 (2) number of subjects (%) and the “Akathisia (adverse event)” value (40 mg-treated group) was 8%. For the same compound, the “Exacerbation of schizophrenia (adverse event)” value (40 mg-treated group) was 4%, the “Ratio of the subjects showing suppression” value (40 mg-treated group) was 18% and the Serious adverse events (40 mg-treated group) was 3 cases. For the same compound, the “Number of subjects showing adverse events (%)” value (120 mg orally once a day for 6 weeks, 49 subjects) was 38 (78) number of subjects (%).
